Test results as given in ChEMBL document CHEMBL1201862, “PubChem BioAssay data set” (2004).
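Step 1: Grow cells in 96-well plates. Step 2: Expose to compound for 48 hours at 5 concentrations. Step 3: Interpolate endpoints linearly; if unreached, use highest concentration. GI50: concentration for 50% inhibition of growth.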 Active and inactive are the calls of the source. Cut-off read from the data, not from the text of the source: active = GI50 up to about 1.1 µM and inactive = higher.

Tests used:
Test in all cases: NCI-60 cell line screen, 48 h
[1] = tested on: XF498
[2] = tested on: TK-10
[3] = tested on: K562
[4] = tested on: SN12C
[5] = tested on: DLD-1
[6] = tested on: HOP-62
[7] = tested on: SR
[8] = tested on: OVCAR-5
[9] = tested on: OVCAR-3
[10] = tested on: COLO 205
[11] = tested on: SF-268
[12] = tested on: SK-MEL-28
[13] = tested on: HOP-92
[14] = tested on: UO-31
[15] = tested on: KM12
[16] = tested on: SK-MEL-5
[17] = tested on: M19-MEL
[18] = tested on: LXFL 529
[19] = tested on: IGROV-1
[20] = tested on: U-251
[21] = tested on: SNB-19
[22] = tested on: SK-OV-3
[23] = tested on: RPMI-8226
[24] = tested on: SNB-78
[25] = tested on: HCT-15
[26] = tested on: CAKI-1
[27] = tested on: SF-539
[28] = tested on: NCI-H522
[29] = tested on: DMS-273
[30] = tested on: HCC 2998
[31] = tested on: DMS-114
[32] = tested on: KM-20L2
[33] = tested on: NCI-H226
[34] = tested on: A549
[35] = tested on: SW-620
[36] = tested on: MOLT-4
[37] = tested on: NCI-H23
[38] = tested on: OVCAR-4
[39] = tested on: EKVX
[40] = tested on: CCRF-CEM
[41] = tested on: UACC-257
[42] = tested on: LOX IMVI
[43] = tested on: OVCAR-8
[44] = tested on: NCI-H460
[45] = tested on: HL-60
[46] = tested on: ACHN
[47] = tested on: HCT-116
[48] = tested on: HT-29
[49] = tested on: Malme-3M
[50] = tested on: UACC-62
[51] = tested on: 786-0
[52] = tested on: SK-MEL-2
[53] = tested on: M14
[54] = tested on: SF-295
[55] = tested on: A498
[56] = tested on: HOP-18
[57] = tested on: NCI/ADR-RES
[58] = tested on: SNB-75
[59] = tested on: RXF 393
[60] = tested on: MCF7

CC1(c2ccccc2)CC12C(=O)NC(=O)NC2=O (centres undefined)
GI50 [1]: > 100 µM (inactive) | GI50 [2]: > 100 µM (inactive) | GI50 [3]: > 100 µM (inactive) | GI50 [4]: > 100 µM (inactive) | GI50 [5]: > 100 µM (inactive) | GI50 [6]: > 100 µM (inactive) | GI50 [7]: > 100 µM (inactive) | GI50 [8]: > 100 µM (inactive) | GI50 [9]: > 100 µM (inactive) | GI50 [10]: > 100 µM (inactive) | GI50 [11]: > 100 µM (inactive) | GI50 [12]: > 100 µM (inactive) | GI50 [13]: > 100 µM (inactive) | GI50 [14]: > 100 µM (inactive) | GI50 [15]: > 100 µM (inactive) | GI50 [16]: > 100 µM (inactive) | GI50 [17]: > 100 µM (inactive) | GI50 [18]: > 100 µM (inactive) | GI50 [19]: > 100 µM (inactive) | GI50 [20]: > 100 µM (inactive) | GI50 [21]: > 100 µM (inactive) | GI50 [22]: > 100 µM (inactive) | GI50 [23]: > 100 µM (inactive) | GI50 [24]: > 100 µM (inactive) | GI50 [25]: > 100 µM | GI50 [26]: > 100 µM (inactive) | GI50 [27]: > 100 µM (inactive) | GI50 [28]: > 100 µM (inactive) | GI50 [29]: > 100 µM (inactive) | GI50 [30]: > 100 µM (inactive) | GI50 [31]: > 100 µM (inactive) | GI50 [32]: > 100 µM (inactive) | GI50 [33]: > 100 µM (inactive) | GI50 [34]: > 100 µM (inactive) | GI50 [35]: > 100 µM (inactive) | GI50 [36]: > 100 µM (inactive) | GI50 [37]: > 100 µM (inactive) | GI50 [38]: > 100 µM (inactive) | GI50 [39]: > 100 µM (inactive) | GI50 [40]: > 100 µM (inactive) | GI50 [41]: > 100 µM (inactive) | GI50 [42]: > 100 µM (inactive) | GI50 [43]: > 100 µM (inactive) | GI50 [44]: > 10 µM (inactive) | GI50 [45]: > 100 µM (inactive) | GI50 [46]: > 100 µM (inactive) | GI50 [47]: > 100 µM (inactive) | GI50 [48]: > 100 µM (inactive) | GI50 [49]: > 100 µM (inactive) | GI50 [50]: > 100 µM (inactive) | GI50 [51]: > 100 µM (inactive) | GI50 [52]: > 100 µM (inactive) | GI50 [53]: > 100 µM (inactive) | GI50 [54]: > 100 µM (inactive)

C=C1C(=O)O[C@H]2[C@H]1[C@@H](OC(=O)C=C(C)C)CC1=C[C@@H](C[C@@]3(C)O[C@@H]23)OC1=O
GI50 [1]: 2.05 µM (inactive) | GI50 [55]: 7.33 µM (inactive) | GI50 [4]: 4.54 µM (inactive) | GI50 [5]: 1.6 µM (inactive) | GI50 [56]: 3.05 µM (inactive) | GI50 [6]: 27.9 µM (inactive) | GI50 [8]: 16.7 µM (inactive) | GI50 [9]: 1.59 µM (inactive) | GI50 [13]: 2.1 µM (inactive) | GI50 [14]: 7.74 µM (inactive) | GI50 [15]: 5.74 µM (inactive) | GI50 [16]: 5.55 µM (inactive) | GI50 [17]: 3.08 µM (inactive) | GI50 [19]: 10.8 µM (inactive) | GI50 [20]: 16.3 µM (inactive) | GI50 [21]: 22.3 µM (inactive) | GI50 [22]: 20.9 µM (inactive) | GI50 [25]: 1.93 µM | GI50 [26]: 3.14 µM (inactive) | GI50 [27]: 2.24 µM (inactive) | GI50 [28]: 1.16 µM (inactive) | GI50 [29]: 1.61 µM (inactive) | GI50 [30]: 17.4 µM (inactive) | GI50 [33]: 21.2 µM (inactive) | GI50 [34]: 22 µM (inactive) | GI50 [57]: 2.17 µM (inactive) | GI50 [35]: 1.43 µM (inactive) | GI50 [36]: 2.15 µM (inactive) | GI50 [37]: 3.13 µM (inactive) | GI50 [38]: 6.32 µM (inactive) | GI50 [39]: 4.23 µM (inactive) | GI50 [40]: 0.859 µM (active) | GI50 [41]: 2.18 µM (inactive) | GI50 [42]: 2.27 µM (inactive) | GI50 [47]: 3.4 µM (inactive) | GI50 [48]: 4.14 µM (inactive) | GI50 [49]: 8.04 µM (inactive) | GI50 [50]: 3.52 µM (inactive) | GI50 [52]: 9.1 µM (inactive) | GI50 [58]: 18 µM (inactive) | GI50 [54]: 13.4 µM (inactive) | GI50 [59]: 1.83 µM (inactive)

C=CCc1cccc(/C=N\N/C(N)=N/O)c1O
GI50 [1]: 4.27 µM (inactive) | GI50 [55]: 7.76 µM (inactive) | GI50 [3]: 3.3 µM (inactive) | GI50 [4]: 4.8 µM (inactive) | GI50 [5]: 4.84 µM (inactive) | GI50 [56]: 5.09 µM (inactive) | GI50 [6]: 2.28 µM (inactive) | GI50 [8]: 5.02 µM (inactive) | GI50 [9]: 2.26 µM (inactive) | GI50 [10]: 5.01 µM (inactive) | GI50 [11]: 3.03 µM (inactive) | GI50 [12]: 11.9 µM (inactive) | GI50 [13]: 6.56 µM (inactive) | GI50 [14]: 1.45 µM (inactive) | GI50 [15]: 4.36 µM (inactive) | GI50 [16]: 3.76 µM (inactive) | GI50 [19]: 4.59 µM (inactive) | GI50 [20]: 4.51 µM (inactive) | GI50 [21]: 11.5 µM (inactive) | GI50 [22]: 4.84 µM (inactive) | GI50 [23]: 2.22 µM (inactive) | GI50 [24]: 21.5 µM (inactive) | GI50 [25]: 2.19 µM | GI50 [26]: 3.46 µM (inactive) | GI50 [27]: 2.64 µM (inactive) | GI50 [28]: 3.23 µM (inactive) | GI50 [29]: 3.05 µM (inactive) | GI50 [30]: 3.21 µM (inactive) | GI50 [31]: 2.28 µM (inactive) | GI50 [32]: 3.98 µM (inactive) | GI50 [33]: 3.18 µM (inactive) | GI50 [60]: 2.56 µM (inactive) | GI50 [34]: 3.61 µM (inactive) | GI50 [57]: 2.23 µM (inactive) | GI50 [35]: 6.52 µM (inactive) | GI50 [36]: 3.1 µM (inactive) | GI50 [37]: 3.22 µM (inactive) | GI50 [38]: 5.16 µM (inactive) | GI50 [39]: 3.06 µM (inactive) | GI50 [40]: 2.07 µM (inactive) | GI50 [41]: 4.62 µM (inactive) | GI50 [42]: 3.29 µM (inactive) | GI50 [43]: 3.89 µM (inactive) | GI50 [44]: 3.2 µM (inactive) | GI50 [45]: 2.14 µM (inactive) | GI50 [47]: 5.33 µM (inactive) | GI50 [48]: 6.59 µM (inactive) | GI50 [49]: 9.2 µM (inactive) | GI50 [50]: 2.64 µM (inactive) | GI50 [52]: 6.3 µM (inactive) | GI50 [58]: 4.43 µM (inactive) | GI50 [54]: 2.31 µM (inactive) | GI50 [59]: 2.99 µM (inactive)
